According to patent publication US20060235076A1, “Medicinal composition for treating infection with drug-resistant staphylococcus aureus” (priority 2003, published 2006):

System: MRSA COL and MRSA Strain No. 5
Experiment: Potentiating effect of various gallates for antibacterial activity of oxacillin (MIC by broth microdilution method and FIC)
Type: cell-based, Staphylococcus aureus
Details: for FIC value: combination with oxacillin
Procedure: According to the broth microdilution method defined by Japan Society of Chemotherapy, MIC was determined. CAMHA was prepared by adding 50 mg/l of Ca-ion, 25 mg/l of Mg-ion, and 2% of NaCl to MHB (Mueller-Hinton Broth), and it was used as a medium for use in the measurement of sensitivity. In 96-well microplates 100 μl of the medium for use in the measurement of sensitivity containing drugs was dispensed. The bacterial liquid was incubated at 37° C. overnight, diluted with saline and added to the plate so that the final concentration of the bacteria was 5×10^5 CFU/well. […] FIC (fractional inhibitory concentration) was calculated from the result and the potency of the effect of the combination use was evaluated.

How did the “effect of the combination use with oxacillin by FIC values” (COL Strain and Strain No. 5) turn out when catechin gallate was run?
The value was “most potent”.

What about the FIC value (MRSA COL) of the same substance?
Its FIC value is <0.25.

And the FIC value (MRSA Strain No. 5)?
The FIC value was 0.064.
